# Results: patent publication US20240124455A1, “TRICYCLIC COMPOUNDS AS ANTICANCER AGENTS” (JINGRUI BIOPHARMA CO., LTD., priority 2021, published 2024)
# Assays:
# [1] = system: MV-4-11; assay: Cell proliferation assay (Cell Titer-Glo); format: cell-based; settings: MV-4-11 cells, compound treatment 72 h, CellTiter-Glo
# Experimental: In order to evaluate the activity of the compound on cells, the Cell Titer-Glo assay was used for detection. The cells were incubated in a 37° C. incubator and treated with compounds for 72 hours. At the end of the reaction, the number of living cells in the culture is measured by quantitative determination of ATP. ATP is an indicator of the metabolism of living cells. With Cell Titer-Glo, the luminescence signal produced by cell lysis is proportional to the amount of ATP present, and the amount of ATP is directly proportional to the number of cells in the culture. These signal ratios reflect the cell activity of the compound at that concentration in the well under this condition. • (1) Seeding cells • Trypsinize cells and count cell density with the automated cell counter. • Dilute cell suspension to required density according to seeding density. • Seed 100 ul cells into 96-well plate in growth medium according to the plate map. Medium only is used as background control (Min). • Incubate at 37° C., 5% CO2 overnight. • (2) Compound treatment • Make 200× compound solution in DMSO. • Dilute compounds with growth medium to 3× final concentration by addition of 3 ul 200× compounds to 197 ul growth medium. • Add 50 ul diluted compounds to cells and incubate at 37° C., 5% CO2 for 72 h. • (3) Measurement • Equilibrate the assay plate to room temperature prior to measurement. • Add 40 ul of CellTiter-Glo® Reagent into each well. • Mix contents for 2 minutes on an orbital shaker to induce cell lysis. • Incubate at room temperature for 60 minutes to stabilize luminescent signal. • Record luminescence on Envision. • (4) Data analysis • (1) Using GraphPad Prism 5. • (2) % Inh=(Max signal−Compound signal)/(Max signal−Min signal)×100. • (3) Max signal was obtained from the action of DMSO. • (4) Min signal was obtained from the action of medium only.
# [2] = molecular target: T1, BRD4 (BD1) (Homo sapiens, UniProt O60885); assay: BRD4 (BD1) binding assay (HTRF); settings: BRD4 (D1) with GST tag and biotin-labeled acetylated peptide
# T1 construct: purchased Reaction Biology Company RD-11-157
# Experimental: The BRD4 (BD1) biochemical binding assay was carried out by Sundia MediTech Co., Ltd. • Materials and suppliers: • BRD4(D1): Reaction Biology Company; catalog #: RD-11-157; batch #1319 • Positive control compound: AZD5153; Selleck, catalog #, S8344, batch #, 1 • Peptide: GL China; catalog #329934; batch #, P171229-JQ329934 • DMSO: Sigma; catalog #, D8418-1L; batch #, SHBG3288V • OptiPlate-384: PerkinElmer; catalog #6007270, batch #, 8240-17211 • Instruments: • Centrifuge (manufacturer: Eppendorf, model: 5430) • Microplate reader (manufacturer: Perkin Elmer, model: EnVision) • Sonic pipetting system (manufacturer: Labcyte, model: Echo® 550) • In the assay, the HTRF method uses an anti-GST antibody with a cryptate chelate-labeled europium element as the donor, and the d2 or XL665-labeled streptavidin (having high affinity with biotin) as the acceptor to study the interaction between BRD4 (D1) with GST tag and biotin-labeled acetylated peptide. When the donor and acceptor are close to each other due to the binding of BRD4 (D1) to the biotin-labeled peptide, the excitation of the donor triggers fluorescence resonance energy transfer (FRET) to the acceptor, which then emits fluorescence at a specific wavelength (665 nm). • General assay procedure: 20 nL of compound solution was transferred to the 384-well plate by Labcyte Echo® 550 liquid handler, and 5 μL of BRD4 (BD1) solution from Reaction Biology Company, RD-11-157, or the assay buffer was added to each well. After centrifuge for 1 minute and incubating 15 minutes at rt, the 5 μL peptide (GL China, Catalog #329934, Batch, P171229-JQ329934) was added to each well. After centrifuge for 1 minute at 1000 rpm, 10 μL detect solution was added to each well. After incubating for 60 minutes, centrifuging 1 minute, the signals were measured by Microplate reader. Data analysis: The inhibition percentage in the presence of the compound was calculated based on the following formula:
# % Inhibition=(Signal_max−Signal sample/Signal_max−Signal_min)×100
# Fitting the data in GrphaPad Prism V5.0 software with log(inhibitor) vs. response-Variable slope, the IC50 was obtained.
SMILES,"IC50 ([1]; Homo sapiens, MV4-11, 72 h)",IC50 [2],IC50 [1]
"[2H]C([2H])([2H])n1nc2c3ncc(-c4c(C)nnn4C)cc3n(C(c3ncccc3F)C3CCOCC3)c2c1C(C)(C)O (racemic) [Example 14, 2-(6-(1,4-Dimethyl-1H-1,2,3-triazol-5-yl)-4-((3-fluoropyridin-2-yl)(tetrahydro-2H-pyran-4-yl)methyl)-2-(methyl-d3)-2,4-dihydropyrazolo[3′,4′:4,5]pyrrolo[3,2-b]pyridin-3-yl)propan-2-ol]",–,0.53 nM,1.77 nM
"[2H]C([2H])([2H])c1nnn(C)c1-c1cnc2c3nn(C)c(C(C)(C)O)c3n(C(c3ncccc3F)C3CCOCC3)c2c1 (racemic) [Example 18, 2-(4-((3-Fluoropyridin-2-yl)(tetrahydro-2H-pyran-4-yl)methyl)-2-methyl-6-(1-methyl-4-(methyl-d3)-1H-1,2,3-triazol-5-yl)-2,4-dihydropyrazolo[3′,4′:4,5]pyrrolo[3,2-b]pyridin-3-yl)propan-2-ol]",–,0.52 nM,1.94 nM
"[2H]C([2H])([2H])c1nnn(C)c1-c1cnc2c3nn(C([2H])([2H])[2H])c(C(C)(C)O)c3n(C(c3ncccc3F)C3CCOCC3)c2c1 (racemic) [Example 22, 2-(4-((3-Fluoropyridin-2-yl)(tetrahydro-2H-pyran-4-yl)methyl)-2-(methyl-d3)-6-(1-methyl-4-(methyl-d3)-1H-1,2,3-triazol-5-yl)-2,4-dihydropyrazolo[3′,4′:4,5]pyrrolo[3,2-b]pyridin-3-yl)propan-2-ol]",–,0.34 nM,1.4 nM
"[2H]C([2H])([2H])n1nc2c3ncc(-c4c(C)nnn4C)cc3n(C(c3ncccc3F)C3CCOCC3)c2c1C(C)(C)O (single isomer, unassigned) [Example 15, 2-(6-(1,4-Dimethyl-1H-1,2,3-triazol-5-yl)-4-((3-fluoropyridin-2-yl)(tetrahydro-2H-pyran-4-yl)methyl)-2-(methyl-d3)-2,4-dihydropyrazolo[3′,4′:4,5]pyrrolo[3,2-b]pyridin-3-yl)propan-2-ol]",–,4.8 nM,72.2 nM
"[2H]C([2H])([2H])n1nc2c3ncc(-c4c(C)nnn4C)cc3n(C(c3ncccc3F)C3CCOCC3)c2c1C(C)(C)O (single isomer, unassigned) [Example 16, 2-(6-(1,4-Dimethyl-1H-1,2,3-triazol-5-yl)-4-((3-fluoropyridin-2-yl)(tetrahydro-2H-pyran-4-yl)methyl)-2-(methyl-d3)-2,4-dihydropyrazolo[3′,4′:4,5]pyrrolo[3,2-b]pyridin-3-yl)propan-2-ol]",–,0.18 nM,0.49 nM
"[2H]C([2H])([2H])c1nnn(C)c1-c1cnc2c3nn(C([2H])([2H])[2H])c(C(C)(C)O)c3n(C(c3ncccc3F)C3CCOCC3)c2c1 (single isomer, unassigned) [Example 23, 2-(4-((3-Fluoropyridin-2-yl)(tetrahydro-2H-pyran-4-yl)methyl)-2-(methyl-d3)-6-(1-methyl-4-(methyl-d3)-1H-1,2,3-triazol-5-yl)-2,4-dihydropyrazolo[3′,4′:4,5]pyrrolo[3,2-b]pyridin-3-yl)propan-2-ol]",–,4.4 nM,66.8 nM

# The next lines start with the values.
"IC50 ([1]; Homo sapiens, MV4-11, 72 h)",IC50 [2],IC50 [1],SMILES
1.48 nM,0.3 nM,–,"Cc1nnn(C)c1-c1cnc2c3nn(C)c(C(C)(C)O)c3n(C(c3ccccc3)C3CCOCC3)c2c1 (racemic) [Example 2, 2-(6-(1,4-Dimethyl-1H-1,2,3-triazol-5-yl)-2-methyl-4-(phenyl(tetrahydro-2H-pyran-4-yl)methyl)-2,4-dihydropyrazolo[3′,4′:4,5]pyrrolo[3,2-b]pyridin-3-yl)propan-2-ol]"
1.98 nM,0.61 nM,–,Cc1nnn(C)c1-c1cnc2c3nn(C)c(C(C)(C)O)c3n(C(c3ccccn3)C3CCOCC3)c2c1 (racemic) [Example 6]
3.42 nM,0.61 nM,–,"Cc1nnn(C)c1-c1cnc2c3nn(C)c(C(C)(C)O)c3n(C(c3ncccc3F)C3CCOCC3)c2c1 (racemic) [Example 10, 2-(6-(1,4-Dimethyl-1H-1,2,3-triazol-5-yl)-4-((3-fluoropyridin-2-yl)(tetrahydro-2H-pyran-4-yl)methyl)-2-methyl-2,4-dihydropyrazolo[3′,4′:4,5]pyrrolo[3,2-b]pyridin-3-yl)propan-2-ol]"
–,1.8 nM,36.9 nM,"Cc1nnn(C)c1-c1cnc2c3nn(C)c(C(C)(C)O)c3n(C(c3ccccc3)C3CCOCC3)c2c1 (single isomer, unassigned) [Example 3, 2-(6-(1,4-Dimethyl-1H-1,2,3-triazol-5-yl)-2-methyl-4-(phenyl(tetrahydro-2H-pyran-4-yl)methyl)-2,4-dihydropyrazolo[3′,4′:4,5]pyrrolo[3,2-b]pyridin-3-yl)propan-2-ol]"
–,0.18 nM,1.28 nM,"Cc1nnn(C)c1-c1cnc2c3nn(C)c(C(C)(C)O)c3n(C(c3ccccc3)C3CCOCC3)c2c1 (single isomer, unassigned) [Example 4, 2-(6-(1,4-Dimethyl-1H-1,2,3-triazol-5-yl)-2-methyl-4-(phenyl(tetrahydro-2H-pyran-4-yl)methyl)-2,4-dihydropyrazolo[3′,4′:4,5]pyrrolo[3,2-b]pyridin-3-yl)propan-2-ol]"
–,6.8 nM,63.3 nM,"Cc1nnn(C)c1-c1cnc2c3nn(C)c(C(C)(C)O)c3n(C(c3ncccc3F)C3CCOCC3)c2c1 (single isomer, unassigned) [Example 11, 2-(6-(1,4-Dimethyl-1H-1,2,3-triazol-5-yl)-4-((3-fluoropyridin-2-yl)(tetrahydro-2H-pyran-4-yl)methyl)-2-methyl-2,4-dihydropyrazolo[3′,4′:4,5]pyrrolo[3,2-b]pyridin-3-yl)propan-2-ol]"
–,0.19 nM,0.52 nM,"Cc1nnn(C)c1-c1cnc2c3nn(C)c(C(C)(C)O)c3n(C(c3ncccc3F)C3CCOCC3)c2c1 (single isomer, unassigned) [Example 12, 2-(6-(1,4-Dimethyl-1H-1,2,3-triazol-5-yl)-4-((3-fluoropyridin-2-yl)(tetrahydro-2H-pyran-4-yl)methyl)-2-methyl-2,4-dihydropyrazolo[3′,4′:4,5]pyrrolo[3,2-b]pyridin-3-yl)propan-2-ol]"
–,5 nM,85.3 nM,"[2H]C([2H])([2H])c1nnn(C)c1-c1cnc2c3nn(C)c(C(C)(C)O)c3n(C(c3ncccc3F)C3CCOCC3)c2c1 (single isomer, unassigned) [Example 19, 2-(4-((3-Fluoropyridin-2-yl)(tetrahydro-2H-pyran-4-yl)methyl)-2-methyl-6-(1-methyl-4-(methyl-d3)-1H-1,2,3-triazol-5-yl)-2,4-dihydropyrazolo[3′,4′:4,5]pyrrolo[3,2-b]pyridin-3-yl)propan-2-ol]"
–,0.17 nM,0.81 nM,"[2H]C([2H])([2H])c1nnn(C)c1-c1cnc2c3nn(C)c(C(C)(C)O)c3n(C(c3ncccc3F)C3CCOCC3)c2c1 (single isomer, unassigned) [Example 20, 2-(4-((3-Fluoropyridin-2-yl)(tetrahydro-2H-pyran-4-yl)methyl)-2-methyl-6-(1-methyl-4-(methyl-d3)-1H-1,2,3-triazol-5-yl)-2,4-dihydropyrazolo[3′,4′:4,5]pyrrolo[3,2-b]pyridin-3-yl)propan-2-ol]"
